Source: ChEMBL document CHEMBL3860079, “Design and synthesis of novel HDAC8 inhibitory 2,5-disubstituted-1,3,4-oxadiazoles containing glycine and alanine hybrids with anti cancer activity” (Bioorg Med Chem, 2016)

Experiments:
Histone deacetylase 1 [1] = target: T1, Histone deacetylase 1 (Homo sapiens, UniProt Q13547); assay: Inhibition of HDAC1 in human MDA-MB-231 cells assessed as inhibition of deacetylation activity at 100 nM using Fluor-de-Lys as substrate measured after 15 mins by fluorimetric assay; assay type: cell-based
Homo sapiens [2] = organism: Homo sapiens; assay: Selectivity ratio of IC50 for human full length GST-tagged HDAC8 expressed in Escherichia coli DH5alpha (DE3) to IC50 for HDAC2 in human MDA-MB-231 cells
[3] = Cytotoxicity against human MDA-MB-231 cells assessed as reduction in cell viability measured after 24 hrs by MTT assay; assay type: functional, cell-based; details: MDA-MB-231, 24 h
Histone deacetylase 2 [4] = target: T2, Histone deacetylase 2 (Homo sapiens, UniProt Q92769); assay: Inhibition of HDAC2 in human MDA-MB-231 cells assessed as inhibition of deacetylation activity using Fluor-de-Lys as substrate measured after 15 mins by fluorimetric assay; assay type: cell-based
Histone deacetylase 2 [5] = target: T2, Histone deacetylase 2; assay: Inhibition of HDAC2 in human MDA-MB-231 cells assessed as inhibition of deacetylation activity at 100 nM using Fluor-de-Lys as substrate measured after 15 mins by fluorimetric assay; assay type: cell-based
Histone deacetylase 1 [6] = target: T1, Histone deacetylase 1; assay: Inhibition of HDAC1 in human MDA-MB-231 cells assessed as inhibition of deacetylation activity using Fluor-de-Lys as substrate measured after 15 mins by fluorimetric assay; assay type: cell-based
Homo sapiens [7] = organism: Homo sapiens; assay: Selectivity ratio of IC50 for human full length GST-tagged HDAC8 expressed in Escherichia coli DH5alpha (DE3) to IC50 for HDAC1 in human MDA-MB-231 cells
Histone deacetylase 8 = target: T3, Histone deacetylase 8 (Homo sapiens, UniProt Q9BY41); assay: Inhibition of recombinant human full length GST-tagged HDAC8 expressed in Escherichia coli DH5alpha (DE3) assessed as inhibition of deacetylation activity using Fluor-de-Lys as substrate measured after 15 mins by fluorimetric assay
T3 sequence (Q9BY41 whole entry): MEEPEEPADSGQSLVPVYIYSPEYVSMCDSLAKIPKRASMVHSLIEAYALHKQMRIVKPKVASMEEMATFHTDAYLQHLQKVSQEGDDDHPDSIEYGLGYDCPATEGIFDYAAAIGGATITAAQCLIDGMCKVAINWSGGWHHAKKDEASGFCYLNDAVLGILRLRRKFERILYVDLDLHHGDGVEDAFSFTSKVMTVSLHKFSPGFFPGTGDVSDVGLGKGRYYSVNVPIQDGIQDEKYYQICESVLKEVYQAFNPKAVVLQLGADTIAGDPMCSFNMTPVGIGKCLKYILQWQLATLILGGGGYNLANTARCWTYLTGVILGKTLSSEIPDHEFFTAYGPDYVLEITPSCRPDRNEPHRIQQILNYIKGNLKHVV

Histone deacetylase 3 [8] = target: T4, Histone deacetylase 3 (Homo sapiens, UniProt O15379); assay: Inhibition of HDAC3 in human MDA-MB-231 cells assessed as inhibition of deacetylation activity at 100 nM using Fluor-de-Lys as substrate measured after 15 mins by fluorimetric assay; assay type: cell-based
Histone deacetylase 3 [9] = target: T4, Histone deacetylase 3; assay: Inhibition of HDAC3 in human MDA-MB-231 cells assessed as inhibition of deacetylation activity using Fluor-de-Lys as substrate measured after 15 mins by fluorimetric assay; assay type: cell-based
[10] = target: T5, Histone deacetylase 8 (Homo sapiens) (UniProt Q9BY41); assay: Inhibition of human HDAC8 immunoprecipitated from MDA-MB-231 cell lysates assessed as inhibition of deacetylation activity at 100 nM using Fluor-de-Lys as substrate measured after 15 mins by fluorimetric assay
T5 sequence (whole entry): T3 sequence (Q9BY41 whole entry)

T2 sequence (Q92769 whole entry): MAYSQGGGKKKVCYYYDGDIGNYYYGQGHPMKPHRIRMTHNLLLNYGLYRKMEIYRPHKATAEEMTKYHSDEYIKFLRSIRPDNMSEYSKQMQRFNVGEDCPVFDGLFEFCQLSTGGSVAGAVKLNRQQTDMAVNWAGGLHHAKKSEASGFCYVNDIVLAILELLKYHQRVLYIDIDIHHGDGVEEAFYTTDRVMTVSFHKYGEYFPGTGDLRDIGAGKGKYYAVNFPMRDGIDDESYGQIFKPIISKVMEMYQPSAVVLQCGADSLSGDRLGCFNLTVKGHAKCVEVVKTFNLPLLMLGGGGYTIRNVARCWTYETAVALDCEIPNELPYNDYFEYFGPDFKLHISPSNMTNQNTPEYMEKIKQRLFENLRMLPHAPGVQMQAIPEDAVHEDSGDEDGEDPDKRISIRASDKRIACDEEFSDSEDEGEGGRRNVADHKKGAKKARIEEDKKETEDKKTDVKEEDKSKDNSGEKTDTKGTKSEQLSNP
T4 sequence (O15379 whole entry): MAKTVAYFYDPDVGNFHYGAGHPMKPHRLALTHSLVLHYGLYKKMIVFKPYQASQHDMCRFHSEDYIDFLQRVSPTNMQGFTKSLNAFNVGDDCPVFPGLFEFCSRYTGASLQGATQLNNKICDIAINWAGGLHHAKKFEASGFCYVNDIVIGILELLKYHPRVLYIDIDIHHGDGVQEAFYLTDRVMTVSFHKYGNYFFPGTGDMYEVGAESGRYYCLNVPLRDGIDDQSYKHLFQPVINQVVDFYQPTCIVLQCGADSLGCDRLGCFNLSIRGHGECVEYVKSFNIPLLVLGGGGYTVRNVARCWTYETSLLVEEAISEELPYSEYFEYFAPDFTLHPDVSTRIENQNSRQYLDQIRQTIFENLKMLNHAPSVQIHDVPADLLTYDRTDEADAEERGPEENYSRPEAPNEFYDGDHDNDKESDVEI
T1 sequence (Q13547 whole entry): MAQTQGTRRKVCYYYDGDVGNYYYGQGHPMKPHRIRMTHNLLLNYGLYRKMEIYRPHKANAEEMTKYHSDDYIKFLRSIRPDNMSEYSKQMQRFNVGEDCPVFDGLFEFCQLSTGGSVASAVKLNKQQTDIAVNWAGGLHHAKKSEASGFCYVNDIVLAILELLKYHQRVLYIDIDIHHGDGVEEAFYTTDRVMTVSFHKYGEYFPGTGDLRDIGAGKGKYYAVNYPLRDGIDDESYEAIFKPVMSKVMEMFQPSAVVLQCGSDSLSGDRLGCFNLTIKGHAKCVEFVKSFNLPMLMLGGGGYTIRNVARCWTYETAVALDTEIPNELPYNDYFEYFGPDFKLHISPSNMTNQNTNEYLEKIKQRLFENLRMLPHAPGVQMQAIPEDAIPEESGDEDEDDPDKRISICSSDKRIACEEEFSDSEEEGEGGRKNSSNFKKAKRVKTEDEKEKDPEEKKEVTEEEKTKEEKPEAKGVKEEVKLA

SMILES | IC50 [3] [nM] | IC50 (Histone deacetylase 8) [nM] | also measured
C[C@@H](N)C(=O)NCc1nnc(-c2ccccc2)o1 | 230 | 98 to 100 | inhibition (Histone deacetylase 1 [1]): 30%; Ratio IC50 (Homo sapiens [2]): 0.74; IC50 (Histone deacetylase 2 [4]): 135 nM; inhibition (Histone deacetylase 2 [5]): 19%; IC50 (Histone deacetylase 1 [6]): 260 nM; Ratio IC50 (Homo sapiens [7]): 0.38; inhibition (Histone deacetylase 3 [8]): 0%; IC50 (Histone deacetylase 3 [9]): > 10000 nM; inhibition [10]: 53%
Cc1ccc(-c2nnc(CNC(=O)[C@@H](C)N)o2)cc1 | 254 | 121 | 
Cc1ccc(-c2nnc(CNC(=O)CN)o2)cc1 | 260 | 139 | 
COc1ccc(-c2nnc(CNC(=O)[C@@H](C)N)o2)cc1 | 295 | 153 | 
COc1ccc(-c2nnc(CNC(=O)CN)o2)cc1 | 276 | 142 | 
C[C@@H](N)C(=O)NCc1nnc(-c2ccc([N+](=O)[O-])cc2)o1 | 261 | 127 | 
NCC(=O)NCc1nnc(-c2ccccc2)o1 | 283 | 155 | 
C[C@@H](N)C(=O)NCc1nnc(-c2ccc(F)cc2)o1 | 247 | 116 | 
NCC(=O)NCc1nnc(-c2ccc(F)cc2)o1 | 254 | 135 | 
NCC(=O)NCc1nnc(-c2ccc([N+](=O)[O-])cc2)o1 | 276 | 134 | 
